Bridge positions count the residues as written; N and C are the ends. Square brackets hold non-standard residues; d marks the D form. Peptide text beside a SMILES is read from it. Ala(1-amidino-4-piperidyl) = N=C(N)N1CCC(C[C@H](N)C(=O)O)CC1
Assays:
muPA = molecular target: T1, muPA (Mus musculus, UniProt P06869); assay: Surface plasmon resonance analysis of peptide binding to muPA; parameters: species or system murine; conditions: SPR, 25°C, pH 7.4
T1 construct: To ensure that the uPAs purified from the conditioned media were completely in the two-chain form, they were treated with plasmin; hexa-His (C); made in house; host or cells: HEK293 6E suspension cells
Experimental: (§1) Surface plasmon resonance (SPR) analysis
(§2) To determine the equilibrium binding constants (KD), the association rate constants (kon) and dissociation rate constants (koff) for peptide binding to uPA, surface plasmon resonance analysis was performed on a Biacore T200 instrument (Biacore, Uppsala, Sweden). A CM5 chip was coupled with the uPA variant (muPA or huPAH99Y) to be analysed, by injecting a concentration of 30 µg/mL uPA in immobilization buffer (10 mM sodium acetate, pH 5.0), aiming for an immobilised level of approximately 500 response units (RU). Immobilisation was followed by surface blocking with ethanolamine. A reference cell was prepared in the same way, without coupling of uPA. Mupain-1 variants in HBS with 0.1% BSA, in a dilution series, were injected at a flow rate of 30 µL per min during 60 s at 25°C. Subsequently, the dissociation was monitored during 600 s. Kinetic constants (k on and k off) were calculated with the Biacore Evaluation Software, using the 1∶1 kinetic fit. The K D values were calculated as k off /k on.

muPA wt = molecular target: T2, muPA wt (Mus musculus, UniProt P06869); conditions: means ± S.D.; starred values reproduced from previous publications; ref Andersen et al., 2008; Hosseini et al., 2011; read-out: K i for inhibition of muPA wt; cited from earlier work
T2 construct: To ensure that the uPAs purified from the conditioned media were completely in the two-chain form, they were treated with plasmin; hexa-His (C); made in house; host or cells: HEK293 6E suspension cells

muPA V213T = molecular target: T3, muPA V213T (Mus musculus, UniProt P06869, V396T); assay: Ki for inhibition of muPA-V213T, chromogenic substrate; assay type: biochemical, murine; conditions: means ± S.D.; read-out: K i for inhibition of muPA-V213T
T3 construct: To ensure that the uPAs purified from the conditioned media were completely in the two-chain form, they were treated with plasmin; hexa-His (C); made in house; host or cells: HEK293 6E suspension cells
Excerpt: (§3) Determination of Ki values
(§4) The initial reaction velocities were monitored at an absorbance of 405 nm. The inhibition constants (K i) were subsequently determined from the non-linear regression analyses of plots for V i/V o versus [I]0, using Equation 2, derived under assumption of competitive inhibition:
(§5) [drawing 2] (2) where V i and V 0 are the reaction velocities in the presence and absence of inhibitor, respectively; [S]0 and [I]0 are the substrate and inhibitor concentrations, respectively; K M is K M for substrate hydrolysis by each protease. In Equation 2, it is assumed that [S]free ≈ [S]0 and [I]free ≈ [I]0.

huPA-H99Y K143A = molecular target: T4, huPA-H99Y K143A (Homo sapiens, UniProt P00749, H272Y/K320A); assay: Ki for inhibition of huPA-H99Y-K143A, chromogenic substrate; assay type: biochemical; conditions: 37°C; means ± S.D.; read-out: K i for inhibition of huPA-H99Y-K143A
T4 construct: To ensure that the uPAs purified from the conditioned media were completely in the two-chain form, they were treated with plasmin; hexa-His (C); made in house; host or cells: HEK293 6E suspension cells
Excerpt: as §3, §4, §5

muPA K143A = molecular target: T5, muPA K143A (Mus musculus, UniProt P06869, K322A); assay: Ki for inhibition of muPA-K143A, chromogenic substrate; assay type: biochemical, murine; conditions: means ± S.D.; read-out: K i for inhibition of muPA-K143A
T5 construct: To ensure that the uPAs purified from the conditioned media were completely in the two-chain form, they were treated with plasmin; hexa-His (C); made in house; host or cells: HEK293 6E suspension cells
Excerpt: as §3, §4, §5

huPA-H99Y [1] = molecular target: T6, huPA-H99Y (Homo sapiens, UniProt P00749, H272Y); assay: Ki for inhibition of huPA-H99Y, chromogenic substrate S-2444; assay type: biochemical; conditions: 37°C; means ± S.D.; read-out: K i for inhibition of huPA-H99Y
T6 construct: To ensure that the uPAs purified from the conditioned media were completely in the two-chain form, they were treated with plasmin; hexa-His (C); made in house; host or cells: HEK293 6E suspension cells
Excerpt: as §3, §4, §5

huPA-H99Y [2] = molecular target: T6, huPA-H99Y; assay: Surface plasmon resonance analysis of peptide binding to huPA-H99Y; conditions: SPR, 25°C, pH 7.4; for Kd: calculated as k off/k on, read-out: K D, huPA-H99Y
Experimental: as §1, §2

muPA Y99A = molecular target: T7, muPA Y99A (Mus musculus, UniProt P06869, Y274A); assay: Ki for inhibition of muPA-Y99A, chromogenic substrate; assay type: biochemical, murine; conditions: means ± S.D.; read-out: K i for inhibition of muPA-Y99A
T7 construct: To ensure that the uPAs purified from the conditioned media were completely in the two-chain form, they were treated with plasmin; hexa-His (C); made in house; host or cells: HEK293 6E suspension cells
Excerpt: as §3, §4, §5

muPA K41A = molecular target: T8, muPA K41A (Mus musculus, UniProt P06869, K210A); assay: Ki for inhibition of muPA-K41A, chromogenic substrate; assay type: biochemical, murine; conditions: means ± S.D.; read-out: K i for inhibition of muPA-K41A
T8 construct: To ensure that the uPAs purified from the conditioned media were completely in the two-chain form, they were treated with plasmin; hexa-His (C); made in house; host or cells: HEK293 6E suspension cells
Excerpt: as §3, §4, §5

huPA-H99Y V41A = molecular target: T9, huPA-H99Y V41A (Homo sapiens, UniProt P00749, H272Y/V208A); assay: Ki for inhibition of huPA-H99Y-V41A, chromogenic substrate; assay type: biochemical; conditions: 37°C; means ± S.D.; read-out: K i for inhibition of huPA-H99Y-V41A
T9 construct: To ensure that the uPAs purified from the conditioned media were completely in the two-chain form, they were treated with plasmin; hexa-His (C); made in house; host or cells: HEK293 6E suspension cells
Excerpt: as §3, §4, §5

huPA-H99Y Q192A = huPA-H99Y Q192A (Homo sapiens, UniProt P00749, H272Y/Q373A); assay: Ki for inhibition of huPA-H99Y-Q192A, chromogenic substrate; assay type: biochemical; parameters: To ensure that the uPAs purified from the conditioned media were completely in the two-chain form, they were treated with plasmin; hexa-His (C); made in house; host or cells: HEK293 6E suspension cells; conditions: 37°C; means ± S.D.; read-out: K i for inhibition of huPA-H99Y-Q192A
Excerpt: as §3, §4, §5

muPA S190A = molecular target: T10, muPA S190A (Mus musculus, UniProt P06869, S373A); assay: Ki for inhibition of muPA-S190A, chromogenic substrate; assay type: biochemical, murine; conditions: means ± S.D.; read-out: K i for inhibition of muPA-S190A
T10 construct: To ensure that the uPAs purified from the conditioned media were completely in the two-chain form, they were treated with plasmin; hexa-His (C); made in house; host or cells: HEK293 6E suspension cells
Excerpt: as §3, §4, §5

huPA-H99Y [3] = molecular target: T11, huPA-H99Y (Homo sapiens, UniProt P00749, C299A/H272Y/N322Q); assay: Isothermal titration calorimetry for binding to huPA-H99Y catalytic domain; conditions: ITC, 25°C, pH 7.4
T11 construct: recombinant uPA catalytic domain (residues 159–411), harbouring a H99Y mutation; made in house; host or cells: Pichia pastoris X-33 (secreted)
Experimental: For these experiments, we used the catalytic domain of huPA-H99Y expressed in and purified from Pichia pastoris strain X-33 (see above). The protein was dissolved in and dialysed against a buffer of 20 mM sodium phosphate, pH 7.4, 140 mM NaCl. The protein concentration was determined by absorbance at 280 nm, using an extinction coefficient of 43810 M^−1cm^−1. The peptides were dissolved in the above-mentioned buffer. All isothermal titration calorimetry experiments were performed with a MicroCal^TM ITC200 instrument equilibrated to a temperature of 25°C (298oK). The concentration of uPA-H99Y catalytic domain used in the 200 µl sample cell was 5–50 µM, depending on the affinity of the ligand. Titrations were performed by injecting 2 µl of the ligand until the total syringe volume of 40 µl was spent. Titration of ligand into buffer was performed to obtain buffer correction. The equilibrium association constant KA and the reaction enthalpy ΔH were calculated by fitting the integrated titration peaks using a one-binding-site model in the ITC ORIGIN7 programme package. The following formulas for Gibbs free energy ΔG were used to analyse the measured energies
[drawing 4] (4) where R is the gas constant and T the absolute temperature. ΔS, the entropic change during the reaction, was calculated using equations 3 and 4 and the measured K A and ΔH values.

huPA-H99Y R35A = molecular target: T12, huPA-H99Y R35A (Homo sapiens, UniProt P00749, H272Y/R198A); assay: Ki for inhibition of huPA-H99Y-R35A, chromogenic substrate; assay type: biochemical; conditions: 37°C; means ± S.D.; read-out: K i for inhibition of huPA-H99Y-R35A
T12 construct: To ensure that the uPAs purified from the conditioned media were completely in the two-chain form, they were treated with plasmin; hexa-His (C); made in house; host or cells: HEK293 6E suspension cells
Excerpt: as §3, §4, §5

T1 sequence (P06869 180-433 limits assumed): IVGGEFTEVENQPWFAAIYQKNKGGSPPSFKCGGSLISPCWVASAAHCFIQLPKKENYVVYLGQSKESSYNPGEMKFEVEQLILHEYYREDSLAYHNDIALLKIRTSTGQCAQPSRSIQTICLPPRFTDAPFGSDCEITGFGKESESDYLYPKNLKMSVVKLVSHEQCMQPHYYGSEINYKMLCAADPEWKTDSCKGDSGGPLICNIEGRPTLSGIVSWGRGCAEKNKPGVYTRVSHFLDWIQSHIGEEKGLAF
T1 sequence (P06869 21-178 partner limits assumed): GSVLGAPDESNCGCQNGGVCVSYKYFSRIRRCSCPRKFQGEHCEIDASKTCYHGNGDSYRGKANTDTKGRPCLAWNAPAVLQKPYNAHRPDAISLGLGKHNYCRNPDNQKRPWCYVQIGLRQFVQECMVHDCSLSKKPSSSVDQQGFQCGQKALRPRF
T10 sequence (P06869 180-433 S373A): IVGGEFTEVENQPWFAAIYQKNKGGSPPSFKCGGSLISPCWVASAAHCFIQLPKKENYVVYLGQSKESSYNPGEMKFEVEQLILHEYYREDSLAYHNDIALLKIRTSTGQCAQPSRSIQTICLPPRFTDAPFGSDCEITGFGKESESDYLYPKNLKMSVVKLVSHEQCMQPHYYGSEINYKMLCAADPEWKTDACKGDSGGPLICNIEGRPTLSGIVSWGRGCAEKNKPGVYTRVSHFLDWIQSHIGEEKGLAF
T10 sequence (P06869 21-178 partner limits assumed): as the sequence (P06869 21-178 partner limits assumed) above
T7 sequence (P06869 180-433 Y274A): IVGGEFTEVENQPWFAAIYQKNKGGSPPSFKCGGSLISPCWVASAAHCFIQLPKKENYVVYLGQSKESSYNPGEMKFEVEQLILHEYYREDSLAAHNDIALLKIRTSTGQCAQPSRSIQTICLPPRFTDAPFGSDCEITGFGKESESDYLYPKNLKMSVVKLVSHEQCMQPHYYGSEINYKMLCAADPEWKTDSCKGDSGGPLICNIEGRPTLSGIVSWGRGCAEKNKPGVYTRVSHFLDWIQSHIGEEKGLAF
T7 sequence (P06869 21-178 partner limits assumed): as the sequence (P06869 21-178 partner limits assumed) above
T3 sequence (P06869 180-433 V396T): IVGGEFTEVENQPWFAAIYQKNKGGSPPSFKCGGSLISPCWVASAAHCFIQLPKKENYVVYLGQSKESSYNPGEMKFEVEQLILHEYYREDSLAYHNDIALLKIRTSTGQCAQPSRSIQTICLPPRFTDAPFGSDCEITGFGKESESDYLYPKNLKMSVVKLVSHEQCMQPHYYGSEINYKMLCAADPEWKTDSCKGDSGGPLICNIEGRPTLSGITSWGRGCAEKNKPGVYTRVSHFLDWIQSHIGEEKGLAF
T3 sequence (P06869 21-178 partner limits assumed): as the sequence (P06869 21-178 partner limits assumed) above
T8 sequence (P06869 180-433 K210A): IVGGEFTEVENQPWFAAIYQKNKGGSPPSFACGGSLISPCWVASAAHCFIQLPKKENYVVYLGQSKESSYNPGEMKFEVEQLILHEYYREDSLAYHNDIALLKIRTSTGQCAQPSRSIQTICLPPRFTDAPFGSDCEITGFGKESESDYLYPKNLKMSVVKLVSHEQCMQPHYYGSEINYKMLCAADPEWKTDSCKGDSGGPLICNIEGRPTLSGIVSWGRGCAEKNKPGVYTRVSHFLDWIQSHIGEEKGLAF
T8 sequence (P06869 21-178 partner limits assumed): as the sequence (P06869 21-178 partner limits assumed) above
T5 sequence (P06869 180-433 K322A): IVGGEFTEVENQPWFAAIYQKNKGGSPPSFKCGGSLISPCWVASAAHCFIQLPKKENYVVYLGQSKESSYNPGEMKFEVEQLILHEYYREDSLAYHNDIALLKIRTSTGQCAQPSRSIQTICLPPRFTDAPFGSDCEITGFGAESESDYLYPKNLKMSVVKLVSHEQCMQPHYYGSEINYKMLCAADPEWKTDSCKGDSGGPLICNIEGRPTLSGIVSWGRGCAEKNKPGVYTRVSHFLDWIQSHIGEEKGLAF
T5 sequence (P06869 21-178 partner limits assumed): as the sequence (P06869 21-178 partner limits assumed) above
T2 sequence (P06869 180-433 limits assumed): as the sequence (P06869 180-433 limits assumed) above
T2 sequence (P06869 21-178 partner limits assumed): as the sequence (P06869 21-178 partner limits assumed) above

k off, muPA (muPA) | k on, muPA (muPA) | Ki (muPA V213T) [µM] | Ki (huPA-H99Y K143A) [µM] | Ki (muPA K143A) [µM] | Ki (huPA-H99Y [1]) [µM] | k off, huPA-H99Y (huPA-H99Y [2]) | k on, huPA-H99Y (huPA-H99Y [2]) | Kd (huPA-H99Y [2]) [µM] | Ki (muPA Y99A) [µM] | Ki (muPA K41A) [µM] | Ki (huPA-H99Y V41A) [µM] | Ki (huPA-H99Y Q192A) [µM] | Ki (muPA S190A) [µM] | Kd (huPA-H99Y [3]) [µM] | Ki (huPA-H99Y R35A) [µM] | Compound | also measured
4.01±0.31 (3) s^−1, ×10^2 | 0.985±0.169 (3) M^−1s^−1, ×10^−5 | 0.373 ± 0.055 | 8.74 ± 0.64 | 4.34 ± 0.64 | 5.99 ± 0.43 | 36.6±0.21 (3) s^-1, ×10^2 | 2.60±0.20 (3) M^-1s^-1, ×10^-5 | 1.41 ± 0.11 | 27.2 ± 3.3 | 0.27 ± 0.029 | 7.2 ± 1.44 | 4.85 ± 0.32 | 3.02 ± 0.33 | 1.17 ± 0.3 | 2.68 ± 0.29 | CC(=O)N[C@H]1CSSC[C@@H](C(N)=O)NC(=O)[C@H](C)NC(=O)[C@H](CC(C)C)NC(=O)[C@H](Cc2ccc(O)cc2)NC(=O)[C@H](CCCNC(=N)N)NC(=O)[C@H](CO)NC(=O)[C@H](Cc2ccc(O)cc2)NC(=O)[C@H](C)NC(=O)[C@@H]2CCCN2C1=O [Mupain-1 D9A, CPAYSRYLAC] (Ac-CPAYSRYLAC-NH2; disulfide 1-10) | Ki (muPA wt): 0.89 ± 0.02 µM
1.22±0.06 (3) s^−1, ×10^2 | 5.79±0.82 (3) M^−1s^−1, ×10^−5 | 0.014 ± 0.004 | 0.188 ± 0.057 | 0.1 ± 0.02 | 0.309 ± 0.013 | 3.33±0.13 (4) s^-1, ×10^2 | 4.65±0.27 (4) M^-1s^-1, ×10^-5 | 0.0718 ± 0.006 | 1.36 ± 0.33 | 0.014 ± 0.002 | 0.48 ± 0.158 | 0.438 ± 0.072 | 0.529 ± 0.052 | 0.134 ± 0.061 | 0.174 ± 0.059 | CC(=O)N[C@H]1CSSC[C@@H](C(N)=O)NC(=O)[C@H](C)NC(=O)[C@H](CC(C)C)NC(=O)[C@H](Cc2ccc(O)cc2)NC(=O)[C@H](CC2CCN(C(=N)N)CC2)NC(=O)[C@H](CO)NC(=O)[C@H](Cc2ccc(O)cc2)NC(=O)[C@H](C)NC(=O)[C@@H]2CCCN2C1=O [Mupain-1-16 D9A, CPAYS[L-3-(N-amidino-4-piperidyl)alanine]YLAC] (Ac-CPAYS[Ala(1-amidino-4-piperidyl)]YLAC-NH2; disulfide 1-10) | N (huPA-H99Y [3]): 0.88±0.11 (5); TΔS (huPA-H99Y [3]): −6.2±2.7 (5) ^1 kJ/mole; ΔG (huPA-H99Y [3]): −39.5±1.1 (5) ^1 kJ/mole; ΔH (huPA-H99Y [3]): −46.6±2.9 (5) ^1 kJ/mole
 |  |  |  |  | > 1000 |  |  |  |  |  |  |  |  |  |  | CC(=O)N[C@H]1CSSC[C@@H](C(N)=O)NC(=O)[C@H](CC(=O)O)NC(=O)[C@H](CC(C)C)NC(=O)[C@H](Cc2ccc(O)cc2)NC(=O)[C@H](CCCNC(=N)N)NC(=O)[C@H](C)NC(=O)[C@H](Cc2ccc(O)cc2)NC(=O)[C@H](C)NC(=O)[C@@H]2CCCN2C1=O [Mupain-1 S5A, CPAYARYLDC] (Ac-CPAYARYLDC-NH2; disulfide 1-10) | 

Compound | k off, muPA (muPA) | k on, muPA (muPA) | Ki (muPA V213T) [µM] | Ki (huPA-H99Y K143A) [µM] | Ki (muPA K143A) [µM] | Ki (huPA-H99Y [1]) [µM] | k off, huPA-H99Y (huPA-H99Y [2]) | k on, huPA-H99Y (huPA-H99Y [2]) | Kd (huPA-H99Y [2]) [µM] | Ki (muPA Y99A) [µM] | Ki (muPA K41A) [µM] | Ki (huPA-H99Y V41A) [µM] | Ki (huPA-H99Y Q192A) [µM] | Ki (muPA S190A) [µM] | Kd (huPA-H99Y [3]) [µM] | Ki (huPA-H99Y R35A) [µM] | also measured
CPAYSRYLDC [Mupain-1 L8A] |  |  |  |  |  | 19.1 ± 1.1 |  |  |  |  |  |  |  |  |  |  | 

From paper PMC4278837, “A Cyclic Peptidic Serine Protease Inhibitor: Increasing Affinity by Increasing Peptide Flexibility” (PLoS ONE, 2014)
